Source: patent US20200085776A1, “Methods of Reducing C-Reactive Protein and/or Treating Cardiovascular Disease” (CARDAX, INC., priority 2018, published 2020)
Read-outs that look alike come from different tables or passages of the source.

Assays:
[1] = system: Triglycerides; assay: Fasting lipid panel: triglycerides, CHASE clinical study; assay type: in vivo, human; details: for Triglycerides V2 to V6 % Change Max / Triglycerides V2 to V6 % Change Mean (SD) / Triglycerides V2 to V6 % Change Median / Triglycerides V2 to V6 % Change Min / Triglycerides V2 to V6 Change Max / Triglycerides V2 to V6 Change Mean (SD) / Triglycerides V2 to V6 Change Median / Triglycerides V2 to V6 Change Min: baseline to Week 12
Source text: Blood samples shall be obtained under fasted conditions for a lipid panel at V2, V4, V6, V7, and V8. This panel shall include total cholesterol, LDL-C, VLDL-C, HDL-C, and triglycerides. A minimum eight-hour fast (water allowed) is required for the lipid panel.
Fasting lipid profiles and fasting chemistry panels may be obtained within the visit time window on a day separate from the scheduled office visit, within two days before or after the other study procedures. A minimum of eight hours fasted (water allowed ad lib) is required.
Table 7M provides the changes in lipid levels (mg/dL) (V2 to V6) for subjects.

[2] = Astaxanthin levels in plasma (PK), CHASE clinical study; assay type: in vivo, human; details: for concentration at 12 week: human, oral
Source text: Blood samples shall be collected for astaxanthin analysis at V2, V4, V6, and V8.
The approximate time of the most recent dose prior to PK sampling shall be documented. PK sampling is sparse, sample acquisition in relationship to the most recent dose will vary, and formal PK calculations (e.g., Tmax, Cmax, T1/2, AUC) are not possible from the collections scheduled. Analysis will consist of a tabular listing and comparison by treatment group with calculation of the mean, median, standard deviation, maximum, and minimum at the nominal visits. Sub-analysis by subject demographic and clinical characteristics (e.g., gender, age, weight, and smoking status) may be performed at the discretion of the Sponsor.
PK samples will be collected into a 6.0 mL K2EDTA tube, gently inverted sufficient times to mix the sample and anticoagulant, and placed in an ice bath for 15 minutes.
The blood samples will be centrifuged at 3500 rpm for ten minutes at room temperature for 10 minutes. Any hemolyzed or clotted samples will be documented in the study data.
All resultant plasma will be split into two approximately equal aliquots and frozen at −60 to −90° C. Samples may be initially placed on dry ice prior to being stored in the appropriate freezer.

[3] = Group X 12 mg BID, V2 baseline pre-dose, all subjects
[4] = Group X 12 mg BID, V2 baseline pre-dose, subjects with hyperlipidemia
[5] = Group X 12 mg BID, V6 Week 12, all subjects
[6] = Group X 12 mg BID, V6 Week 12, subjects with hyperlipidemia
[7] = Group X 12 mg BID, all subjects
[8] = Group X 12 mg BID, subjects with hyperlipidemia
[9] = Group Z 48 mg BID, V2 baseline pre-dose, all subjects
[10] = Group Z 48 mg BID, V2 baseline pre-dose, subjects with hyperlipidemia
[11] = Group Z 48 mg BID, V6 Week 12, all subjects
[12] = Group Z 48 mg BID, V6 Week 12, subjects with hyperlipidemia
[13] = Group Z 48 mg BID, all subjects
[14] = Group Z 48 mg BID, subjects with hyperlipidemia
[15] = Group X 12 mg BID, V2 baseline pre-dose, BQL (less than 9.77 ng/mL) treated as 4.885
[16] = Group Z 48 mg BID, V2 baseline pre-dose, BQL (less than 9.77 ng/mL) treated as 4.885

SMILES: CC1=C(/C=C/C(C)=C/C=C/C(C)=C/C=C/C=C(C)/C=C/C=C(C)/C=C/C2=C(C)C(=O)C(O)CC2(C)C)C(C)(C)CC(O)C1=O (centres unmarked) [Astaxanthin, astaxanthin]
- Triglycerides Max [1, 3]: 482.0 mg/dL
- Triglycerides Mean (SD) [1, 3]: 201.9 (122.2) mg/dL
- Triglycerides Median [1, 3]: 177.0 mg/dL
- Triglycerides Min [1, 3]: 59.00 mg/dL
- Triglycerides Max [1, 4]: 482.0 mg/dL
- Triglycerides Mean (SD) [1, 4]: 235.8 (126.1) mg/dL
- Triglycerides Median [1, 4]: 253.5 mg/dL
- Triglycerides Min [1, 4]: 80.00 mg/dL
- Triglycerides Max [1, 5]: 420.0 mg/dL
- Triglycerides Mean (SD) [1, 5]: 177.4 (109.8) mg/dL
- Triglycerides Median [1, 5]: 131.0 mg/dL
- Triglycerides Min [1, 5]: 70.00 mg/dL
- Triglycerides Max [1, 6]: 420.0 mg/dL
- Triglycerides Mean (SD) [1, 6]: 202.3 (120.2) mg/dL
- Triglycerides Median [1, 6]: 211.5 mg/dL
- Triglycerides Min [1, 6]: 70.00 mg/dL
- Triglycerides V2 to V6 % Change Max [1, 7]: 42.37%
- Triglycerides V2 to V6 % Change Mean (SD) [1, 7]: −7.10 (27.88) %
- Triglycerides V2 to V6 % Change Median [1, 7]: −12.9%
- Triglycerides V2 to V6 % Change Min [1, 7]: −61.5%
- Triglycerides V2 to V6 Change Max [1, 7]: 56.00 mg/dL
- Triglycerides V2 to V6 Change Mean (SD) [1, 7]: −24.6 (59.47) mg/dL
- Triglycerides V2 to V6 Change Median [1, 7]: -26.0 mg/dL
- Triglycerides V2 to V6 Change Min [1, 7]: -166 mg/dL
- Triglycerides V2 to V6 % Change Max [1, 8]: 22.76%
- Triglycerides V2 to V6 % Change Mean (SD) [1, 8]: −12.9 (26.00) %
- Triglycerides V2 to V6 % Change Median [1, 8]: −14.5%
- Triglycerides V2 to V6 % Change Min [1, 8]: −61.5%
- Triglycerides V2 to V6 Change Max [1, 8]: 56.00 mg/dL
- Triglycerides V2 to V6 Change Mean (SD) [1, 8]: −33.5 (66.92) mg/dL
- Triglycerides V2 to V6 Change Median [1, 8]: -34.0 mg/dL
- Triglycerides V2 to V6 Change Min [1, 8]: -166 mg/dL
- Triglycerides Max [1, 9]: 1677 mg/dL
- Triglycerides Mean (SD) [1, 9]: 283.5 (368.2) mg/dL
- Triglycerides Median [1, 9]: 175.0 mg/dL
- Triglycerides Min [1, 9]: 75.00 mg/dL
- Triglycerides Max [1, 10]: 1677 mg/dL
- Triglycerides Mean (SD) [1, 10]: 321.9 (407.8) mg/dL
- Triglycerides Median [1, 10]: 182.0 mg/dL
- Triglycerides Min [1, 10]: 82.00 mg/dL
- Triglycerides Max [1, 11]: 650.0 mg/dL
- Triglycerides Mean (SD) [1, 11]: 192.2 (155.1) mg/dL
- Triglycerides Median [1, 11]: 145.5 mg/dL
- Triglycerides Min [1, 11]: 63.00 mg/dL
- Triglycerides Max [1, 12]: 650.0 mg/dL
- Triglycerides Mean (SD) [1, 12]: 213.1 (170.3) mg/dL
- Triglycerides Median [1, 12]: 149.5 mg/dL
- Triglycerides Min [1, 12]: 76.00 mg/dL
- Triglycerides V2 to V6 % Change Max [1, 13]: 115.2%
- Triglycerides V2 to V6 % Change Mean (SD) [1, 13]: −0.96 (43.74) %
- Triglycerides V2 to V6 % Change Median [1, 13]: −16.2%
- Triglycerides V2 to V6 % Change Min [1, 13]: −49.5%
- Triglycerides V2 to V6 Change Max [1, 13]: 348.0 mg/dL
- Triglycerides V2 to V6 Change Mean (SD) [1, 13]: −9.89 (109.9) mg/dL
- Triglycerides V2 to V6 Change Median [1, 13]: -24.5 mg/dL
- Triglycerides V2 to V6 Change Min [1, 13]: -178 mg/dL
- Triglycerides V2 to V6 % Change Max [1, 14]: 115.2%
- Triglycerides V2 to V6 % Change Mean (SD) [1, 14]: 0.07 (48.86) %
- Triglycerides V2 to V6 % Change Median [1, 14]: −21.5%
- Triglycerides V2 to V6 % Change Min [1, 14]: −49.5%
- Triglycerides V2 to V6 Change Max [1, 14]: 348.0 mg/dL
- Triglycerides V2 to V6 Change Mean (SD) [1, 14]: −12.0 (124.4) mg/dL
- Triglycerides V2 to V6 Change Median [1, 14]: -29.0 mg/dL
- Triglycerides V2 to V6 Change Min [1, 14]: -178 mg/dL
- astaxanthin levels Max [2, 15]: 4.89, 4.89 ng/mL
- astaxanthin levels Mean (SD) [2, 15]: 4.89 (0.00) ng/mL
- astaxanthin levels Median [2, 15]: 4.89 ng/mL
- astaxanthin levels Min [2, 15]: 4.89, 4.89 ng/mL
- astaxanthin levels Max ([2]; Group X 12 mg BID, V6 Week 12): 1282 ng/mL
- astaxanthin levels Min ([2]; Group X 12 mg BID, V6 Week 12): 190.9 ng/mL
- astaxanthin levels Max [2, 16]: 221.0 ng/mL
- astaxanthin levels Mean (SD) [2, 16]: 17.12 (49.44) ng/mL
- astaxanthin levels Median [2, 16]: 4.89 ng/mL
- astaxanthin levels Min [2, 16]: 4.89 ng/mL
- astaxanthin levels Max ([2]; Group Z 48 mg BID, V6 Week 12): 7030 ng/mL
- astaxanthin levels Min ([2]; Group Z 48 mg BID, V6 Week 12): 409.0 ng/mL
- concentration at 12 week ([2]; 12 mg, Group X 12 mg BID, V6 Week 12, read-out: astaxanthin levels Mean (SD)): 785 ng/mL
- concentration at 12 week ([2]; 12 mg, Group X 12 mg BID, V6 Week 12, read-out: astaxanthin levels Median): 790 ng/mL
- concentration at 12 week ([2]; 48 mg, Group Z 48 mg BID, V6 Week 12, read-out: astaxanthin levels Mean (SD)): 2590 ng/mL
- concentration at 12 week ([2]; 48 mg, Group Z 48 mg BID, V6 Week 12, read-out: astaxanthin levels Median): 2180 ng/mL
